Experimental data reported in PubChem BioAssay (NCI).
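Each compound was tested at five concentrations against cells in 96-well plates for 48 hours. TGI is the concentration that stops growth completely.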

Assays:
Assay in all cases: NCI anticancer screen, dose series, 48 h
NCI-H23 lung = test system: NCI-H23 lung
HOP-62 NSCLC = test system: HOP-62 NSCLC
SN12C renal = test system: SN12C renal
COLO 205 colon = test system: COLO 205 colon
SW-620 colon = test system: SW-620 colon
HOP-92 NSCLC = test system: HOP-92 NSCLC
SK-MEL-5 melanoma = test system: SK-MEL-5 melanoma
SK-MEL-28 melanoma = test system: SK-MEL-28 melanoma
SNB-75 CNS = test system: SNB-75 CNS
HCT-116 colon = test system: HCT-116 colon
HCT-15 colon = test system: HCT-15 colon
SF-268 CNS = test system: SF-268 CNS
SR leukemia = test system: SR leukemia
OVCAR-3 ovarian = test system: OVCAR-3 ovarian
HT29 colon = test system: HT29 colon
NCI-H522 lung = test system: NCI-H522 lung
MALME-3M melanoma = test system: MALME-3M melanoma
UACC-257 melanoma = test system: UACC-257 melanoma
MOLT-4 leukemia = test system: MOLT-4 leukemia
A498 renal = test system: A498 renal
CAKI-1 renal = test system: CAKI-1 renal
SK-MEL-2 melanoma = test system: SK-MEL-2 melanoma
OVCAR-8 ovarian = test system: OVCAR-8 ovarian
MDA-N = test system: MDA-N
KM12 colon = test system: KM12 colon
OVCAR-5 ovarian = test system: OVCAR-5 ovarian
RXF 393 renal = test system: RXF 393 renal
A549 NSCLC = test system: A549 NSCLC
MDA-MB-231 breast = test system: MDA-MB-231 breast
K-562 leukemia = test system: K-562 leukemia
HS 578T breast = test system: HS 578T breast
HCC-2998 colon = test system: HCC-2998 colon
LOX IMVI melanoma = test system: LOX IMVI melanoma
M14 melanoma = test system: M14 melanoma
MDA-MB-435 = test system: MDA-MB-435
786-0 renal = test system: 786-0 renal
UO-31 renal = test system: UO-31 renal
U251 CNS = test system: U251 CNS
RPMI-8226 leukemia = test system: RPMI-8226 leukemia
SNB-19 CNS = test system: SNB-19 CNS
SK-OV-3 ovarian = test system: SK-OV-3 ovarian
NCI-H226 lung = test system: NCI-H226 lung
ACHN renal = test system: ACHN renal
T-47D breast = test system: T-47D breast
TK-10 renal = test system: TK-10 renal
NCI/ADR-RES ovarian = test system: NCI/ADR-RES ovarian
UACC-62 melanoma = test system: UACC-62 melanoma
OVCAR-4 ovarian = test system: OVCAR-4 ovarian
BT-549 breast = test system: BT-549 breast
PC-3 prostate = test system: PC-3 prostate
NCI-H460 lung = test system: NCI-H460 lung
SF-295 CNS = test system: SF-295 CNS
IGROV1 ovarian = test system: IGROV1 ovarian
DU-145 prostate = test system: DU-145 prostate
HL-60(TB) leukemia = test system: HL-60(TB) leukemia
EKVX NSCLC = test system: EKVX NSCLC
MCF7 breast = test system: MCF7 breast
CCRF-CEM leukemia = test system: CCRF-CEM leukemia
SF-539 CNS = test system: SF-539 CNS

Measured: TGI

CCOC(=O)c1sc2nc(SC)nc(N3CCCCC3)c2c1N
not listed: HL-60(TB) leukemia | EKVX NSCLC | MCF7 breast | CCRF-CEM leukemia | SF-539 CNS
> 100 µM: all other assays above

CC1CC2=C(C1)C(C1(C)C(=O)CC3C(C1=O)C3(C)C)C(C)C2=O (stereo unspecified)
not listed: NCI/ADR-RES ovarian
> 100 µM: all other assays above

CC(NC(=O)C(Cc1ccc(OC(=O)c2ccccc2)cc1)NC(=O)OC(C)(C)C)C(=O)NCC(=O)NC(Cc1ccccc1)NC(=O)OCc1ccccc1 (stereo unspecified)
not listed: UACC-257 melanoma | SK-MEL-2 melanoma | HCC-2998 colon | NCI/ADR-RES ovarian | CCRF-CEM leukemia
> 100 µM: all other assays above
